Laboratory results from US20260256786A1 (United Therapeutics Corporation, priority 2020, published 2026).
Like-named read-outs stand apart in the source and are kept apart here.

Tests used:
[1] = Pharmacokinetics of insufflated ImaT powder in rat: lung sections; format: in vivo, Sprague Dawley rats; details: for concentration at 0.08 h / concentration at 1 h / concentration at 4 h / concentration at 8 h: male, Sprague Dawley, rat, lung, inhaled, 4 mg/kg
Method: Lungs were also harvested at specified time points (see Table 4). […] Lungs werethen harvested. The left lobe was sectioned into three parts; upper, middle and bottom. Each section was separated into two equal pieces. Each piece was weighed and individually placed in a properly labeled tube. Lungs samples were snap-frozen and stored at −80° C. Lung samples were then homogenized in PBS, 0.1% Triton X-100 (200 mg of tissue/mL). The homogenate samples were stored at −80° C.

[2] = ImaT 4 mg/kg insufflation, 24 h time point
Method: After dosing, blood samples and lungs were collected at specific time points over a period of 24 hours.
The rats were anesthetized with a mixture of 1.5 to 3% isoflurane USP (Abbott Laboratories, Montreal Canada) in 100% oxygen, and placed on a homoeothermic heating pad to maintain body temperature at 37±1° C.
For all groups, the test article was insufflated using an automated insufflation device. The insufflator tip was inserted just above the bifurcation of the trachea and the discharge of powder was timed to the inhalation cycle of the animal. After dosing, the animals were allowed to recover from anesthesia under surveillance before being returned to their respective cages.
Blood samples of 0.5 mL were collected from the jugular vein at specified time points (see Table 4).
Blood samples were centrifuged (3000 r.p.m. for 10 min., 2-8° C.) and plasma was transferred into an Eppendorf tube labeled with the Study Number, animal I.D., dose group and time point.
For each group, data in this report is expressed as mean±S.E.M.

[3] = section 1 (homogenate), read-out: Lung conc, Section 1
[4] = section 2 (homogenate), read-out: Lung conc, Section 2
[5] = section 3 (homogenate), read-out: Lung conc, Section 3
[6] = section 4 (homogenate), read-out: Lung conc, Section 4
[7] = section 5 (homogenate), read-out: Lung conc, Section 5
[8] = section 6 (homogenate), read-out: Lung conc, Section 6

Cc1ccc(NC(=O)c2ccc(CN3CCN(C)CC3)cc2)cc1Nc1nccc(-c2cccnc2)n1 [Imatinib, 4-[(4-methylpiperazin-1-yl)methyl]-N-[4-methyl-3-[(4-pyridin-3-ylpyrimidin-2-yl)amino]phenyl]benzamide]
Imatinib concentrations in the lung ([1]; ImaT 4 mg/kg insufflation, 24 hour time point): below the limit of detection | concentration at 0.08 h [1, 3]: 201 ng/mL | concentration at 1 h [1, 3]: 260 ng/mL | concentration at 4 h [1, 3]: 62 ng/mL | concentration at 8 h [1, 3]: 27.2 ng/mL | concentration at 0.08 h [1, 4]: 1530 ng/mL | concentration at 1 h [1, 4]: 638 ng/mL | concentration at 4 h [1, 4]: 51 ng/mL | concentration at 8 h [1, 4]: 24.4 ng/mL | concentration at 0.08 h [1, 5]: 888 ng/mL | concentration at 1 h [1, 5]: 307 ng/mL | concentration at 4 h [1, 5]: 55.9 ng/mL | concentration at 8 h [1, 5]: 21.1 ng/mL | concentration at 0.08 h [1, 6]: 3000 ng/mL | concentration at 1 h [1, 6]: 510 ng/mL | concentration at 4 h [1, 6]: 68.4 ng/mL | concentration at 8 h [1, 6]: 24.6 ng/mL | concentration at 0.08 h [1, 7]: 2580 ng/mL | concentration at 1 h [1, 7]: 196 ng/mL | concentration at 4 h [1, 7]: 69.5 ng/mL | concentration at 8 h [1, 7]: 22.1 ng/mL | concentration at 0.08 h [1, 8]: 4740 ng/mL | concentration at 1 h [1, 8]: 314 ng/mL | concentration at 4 h [1, 8]: 66.3 ng/mL | concentration at 8 h [1, 8]: 24.6 ng/mL | Time of maximal lung concentration of Imatinib ([1]; post-inhalation of ImaT): 5 min | Plasma concentration of Imatinib [2]: below the limit of detection
